In brackets after ≈: the same amount, converted by molar mass.
How the values were obtained:
[1] = system: Mycobacterium tuberculosis; assay: In vitro antimycobacterial activity against Mycobacterium tuberculosis H37Rv in broth cluture infected with macrophages; assay type: functional
Vero = assay: Selective index of IC50 of Vero Cells to that of MIC of Mycobacterium tuberculosis H37Rv; assay type: functional, Chlorocebus sabaeus
[2] = system: Mycobacterium tuberculosis; assay: In vitro antimycobacterial activity against Mycobacterium tuberculosis Erdman in broth cluture infected with macrophages; assay type: functional
[3] = system: Mycobacterium tuberculosis; assay: Effective concentration required for the reduction in colony forming units (CFU) at seven days compared to drug free controls; assay type: functional; conditions: 168 h
[4] = system: Mycobacterium tuberculosis; assay: Ratio of effective concentration required for the reduction in colony forming units (CFU) at seven days compared to drug free controls to that of MIC against Mycobacterium tuberculosis Erdman; assay type: functional
[5] = system: Mycobacterium tuberculosis; assay: In vitro antimycobacterial activity against Mycobacterium tuberculosis H37Rv in broth cluture infected with macrophages; Range 0.025-0.05; assay type: functional

Row | SMILES | MBC [1] | MIC [1] | Selective index (Vero) | MIC [2] | EC90 [3] | EC99 [3] | Ratio [4] | MIC [5]
1 | O=C(N/N=C/c1ccc(C(F)(F)F)cc1)c1ccncc1 | 0.2 µg/mL (≈ 0.682 µM) | 0.05 µg/mL (≈ 0.171 µM) | >1250 | 0.1 µg/mL (≈ 0.341 µM) | 0.04 µg/mL (≈ 0.136 µM) | 0.09 µg/mL | 0.4 | –
2 | O=C(N/N=C/c1ccccc1F)c1ccncc1 | – | 0.05 µg/mL (≈ 0.206 µM) | 168 | 0.05 µg/mL (≈ 0.206 µM) | 0.05 µg/mL (≈ 0.206 µM) | 0.14 µg/mL | 1 | –
3 | C/C(=N\NC(=O)c1ccncc1)C(F)(F)F | 0.2 µg/mL (≈ 0.865 µM) | 0.05 µg/mL (≈ 0.216 µM) | 1160 | 0.1 µg/mL (≈ 0.433 µM) | 0.046 µg/mL (≈ 0.199 µM) | 0.41 µg/mL | 0.46 | –
4 | C/C(=N\NC(=O)c1ccncc1)c1cccc(/C(C)=N/NC(=O)c2ccncc2)n1 | 12.5 µg/mL (≈ 31.1 µM) | ≤ 0.2 µg/mL | 320.5 | 0.39 µg/mL (≈ 0.972 µM) | 0.09 µg/mL (≈ 0.224 µM) | 0.29 µg/mL | 0.23 | –
5 | O=C(N/N=C/C(F)(F)F)c1ccncc1 | – | 0.05 µg/mL (≈ 0.23 µM) | 302 | – | 0.05 µg/mL (≈ 0.23 µM) | 0.25 µg/mL | – | –
6 | C/C=N/NC(=O)c1ccncc1 | 0.05 µg/mL (≈ 0.306 µM) | 0.025 µg/mL (≈ 0.153 µM) | >2500 | 0.025 µg/mL (≈ 0.153 µM) | 0.03 µg/mL (≈ 0.184 µM) | 0.08 µg/mL | 1.2 | –
7 | C/C(=N\NC(=O)c1ccncc1)c1ccc(F)cc1 | – | 1.6 µg/mL (≈ 6.22 µM) | >78 | 1.56 µg/mL (≈ 6.06 µM) | 1.84 µg/mL (≈ 7.15 µM) | 5.25 µg/mL | 1.18 | –
8 | N#CC[n+]1ccc(C(=O)NNCc2ccccc2)cc1 | 1.56 µg/mL | 0.8 µg/mL | – | 12.5 µg/mL | 0.116 µg/mL | 1.49 µg/mL | 0.0093 | –
9 | CC(NNC(=O)c1ccncc1)c1ccccc1F (stereo not drawn) | – | 1.6 µg/mL (≈ 6.17 µM) | 78.12 | 3.13 µg/mL (≈ 12.1 µM) | 2.54 µg/mL (≈ 9.8 µM) | 6.06 µg/mL | 0.81 | –
10 | N#CC[n+]1ccc(C(=O)NNCC(F)(F)F)cc1 | 3.13 µg/mL | 0.78 µg/mL | 122 | 12.5 µg/mL | 1.14 µg/mL | 10.6 µg/mL | 0.091 | –
11 | NNC(=O)c1ccncc1 [ISONIAZID] | 0.1 µg/mL (≈ 0.729 µM) | – | >20000 | – | 0.03 µg/mL (≈ 0.219 µM) | 0.42 µg/mL | – | 0.05 µg/mL (≈ 0.365 µM)
